Source: PMC8795738, “The Tarantula Venom Peptide Eo1a Binds to the Domain II S3-S4 Extracellular Loop of Voltage-Gated Sodium Channel NaV1.8 to Enhance Activation” (Frontiers in Pharmacology, 2022)
Where a SMILES comes first, the peptide text is derived from it. Bridges are numbered along the chain shown (N, C = ends).

Assays:
[1] = system: NaV1.7 with DIV S3-S4 loop of NaV1.8; experiment: Voltage-dependence of activation, NaV1.7/NaV1.8 chimera DIV S3-S4; format: cell-based, human; details: Eo1a 10 μM; NaV1.7 with NaV1.8 DIV S3-S4; HEK293 β1/β2, transient; mean ± SEM, n = 3–6 cells
Description: (§1) Human Embryonic Kidney (HEK) 293 cells stably expressing human NaV1.1 to NaV1.7/β1 (SB Drug Discovery, Glasgow, United Kingdom), Chinese Hamster Ovary (CHO) cells stably expressing human NaV1.8/β3 in a tetracycline-inducible system (ChanTest, Cleveland, OH, United States), and HEK293 cells stably expressing rat transient receptor potential vanilloid 1 (TRPV1) were cultured as previously described ([Yin et al., 2020]). Human KV2.1 and NaV1.7 mutants were transiently transfected into HEK293 cells stably expressing β1/β2 using Lipofectamine 2000 (Thermo Fisher Scientific, Scoresby, VIC, Australia) and used for patch-clamp experiments 48 h after transfection. Cells were grown in an incubator at 37°C with 5% CO2 and passaged every 3–4 d (at 70–80% confluency) using TrypLE Express (Thermo Fisher Scientific).
Wild-type (WT) hNaV1.7 cDNA (NM_002,977, a gift from Dr James Cox, University College London) was subjected to in vitro site-directed mutagenesis using the QuikChange™ XL mutagenesis kit (Agilent Technologies) following the manufacturer’s instructions. NaV1.7 mutants were generated by substituting the domain II (DII) S1-S2 loop, the DII S3-S4 loop, the domain IV (DIV) S1-S2 loop and the DIV S3-S4 loop in NaV1.7 with the corresponding regions of NaV1.8. The mutations were verified by sequencing at the Brisbane node of the Australian Genome Research Facility. […]

NaV1.8 = NaV1.8 (Homo sapiens, UniProt Q9Y5Y9); experiment: I-V protocol, whole-cell patch-clamp, NaV1.8; format: cell-based; details: Eo1a 10 μM
Description: as §1
Automated whole-cell patch-clamp recordings were performed with a QPatch-16 automated electrophysiology platform (Sophion Bioscience, Ballerup, Denmark) using single-hole (QPlate 16 with a standard resistance of 2 ± 0.4 MΩ) or multi-hole (QPlate 16X with a standard resistance 0.2 ± 0.04 MΩ, NaV1.8 only) as previously described ([McMahon et al., 2020]).
The extracellular solution (ECS) consisted of (in mM) 145 NaCl (replaced with 70 choline chloride for NaV1.4, NaV1.5 and NaV1.7), 4 KCl, 2 CaCl2, 1 MgCl2, 10 HEPES, and 10 glucose, pH to 7.4 with NaOH (adjusted to 305 mOsm/L with sucrose). For NaV recordings the intracellular solution (ICS) consisted of (in mM) 140 CsF, 1 EGTA, 5 CsOH, 10 HEPES, and 10 NaCl, pH to 7.3 with CsOH (adjusted to 320 mOsm/L with sucrose). For KV2.1 recordings the ICS consisted of (in mM) 50 KCl, 60 KF, 10 EGTA, 10 HEPES, 10 NaCl pH to 7.3 with KOH (adjusted to 320 mOsm/L with sucrose). TTX (1 μM) was added to the ECS for NaV1.8 recordings to inhibit background endogenous TTX sensitive current in CHO cells.
I-V curves were obtained with a holding potential of −90 mV followed by a series of 500 ms step pulses that ranged from −110 to +80 mV in 5-mV increments (repetition interval 5 s) before and after 5 min incubation with Eo1a (10 μM). Conductance-voltage (G-V) curves were obtained by calculating the conductance (G) at each voltage (V) using equation G = I/(V − V rev ), where V rev is the reversal potential. G-V curves were fitted with a Boltzmann equation. The voltage dependence of steady-state fast inactivation was examined using a 10-ms pulse of −20 mV (+10 mV for NaV1.8) immediately after the 500-ms step above to assess the available non-inactivated channels.
The time constant of fast inactivation (τ) was computed by fitting the current decay traces with a single exponential function using QPatch Assay Software 5.6 (Sophion). The time to peak was calculated from pulse onset to peak inward current using QPatch Assay Software 5.6 (Sophion).

NaV1.8, sequence (Q9Y5Y9 whole entry): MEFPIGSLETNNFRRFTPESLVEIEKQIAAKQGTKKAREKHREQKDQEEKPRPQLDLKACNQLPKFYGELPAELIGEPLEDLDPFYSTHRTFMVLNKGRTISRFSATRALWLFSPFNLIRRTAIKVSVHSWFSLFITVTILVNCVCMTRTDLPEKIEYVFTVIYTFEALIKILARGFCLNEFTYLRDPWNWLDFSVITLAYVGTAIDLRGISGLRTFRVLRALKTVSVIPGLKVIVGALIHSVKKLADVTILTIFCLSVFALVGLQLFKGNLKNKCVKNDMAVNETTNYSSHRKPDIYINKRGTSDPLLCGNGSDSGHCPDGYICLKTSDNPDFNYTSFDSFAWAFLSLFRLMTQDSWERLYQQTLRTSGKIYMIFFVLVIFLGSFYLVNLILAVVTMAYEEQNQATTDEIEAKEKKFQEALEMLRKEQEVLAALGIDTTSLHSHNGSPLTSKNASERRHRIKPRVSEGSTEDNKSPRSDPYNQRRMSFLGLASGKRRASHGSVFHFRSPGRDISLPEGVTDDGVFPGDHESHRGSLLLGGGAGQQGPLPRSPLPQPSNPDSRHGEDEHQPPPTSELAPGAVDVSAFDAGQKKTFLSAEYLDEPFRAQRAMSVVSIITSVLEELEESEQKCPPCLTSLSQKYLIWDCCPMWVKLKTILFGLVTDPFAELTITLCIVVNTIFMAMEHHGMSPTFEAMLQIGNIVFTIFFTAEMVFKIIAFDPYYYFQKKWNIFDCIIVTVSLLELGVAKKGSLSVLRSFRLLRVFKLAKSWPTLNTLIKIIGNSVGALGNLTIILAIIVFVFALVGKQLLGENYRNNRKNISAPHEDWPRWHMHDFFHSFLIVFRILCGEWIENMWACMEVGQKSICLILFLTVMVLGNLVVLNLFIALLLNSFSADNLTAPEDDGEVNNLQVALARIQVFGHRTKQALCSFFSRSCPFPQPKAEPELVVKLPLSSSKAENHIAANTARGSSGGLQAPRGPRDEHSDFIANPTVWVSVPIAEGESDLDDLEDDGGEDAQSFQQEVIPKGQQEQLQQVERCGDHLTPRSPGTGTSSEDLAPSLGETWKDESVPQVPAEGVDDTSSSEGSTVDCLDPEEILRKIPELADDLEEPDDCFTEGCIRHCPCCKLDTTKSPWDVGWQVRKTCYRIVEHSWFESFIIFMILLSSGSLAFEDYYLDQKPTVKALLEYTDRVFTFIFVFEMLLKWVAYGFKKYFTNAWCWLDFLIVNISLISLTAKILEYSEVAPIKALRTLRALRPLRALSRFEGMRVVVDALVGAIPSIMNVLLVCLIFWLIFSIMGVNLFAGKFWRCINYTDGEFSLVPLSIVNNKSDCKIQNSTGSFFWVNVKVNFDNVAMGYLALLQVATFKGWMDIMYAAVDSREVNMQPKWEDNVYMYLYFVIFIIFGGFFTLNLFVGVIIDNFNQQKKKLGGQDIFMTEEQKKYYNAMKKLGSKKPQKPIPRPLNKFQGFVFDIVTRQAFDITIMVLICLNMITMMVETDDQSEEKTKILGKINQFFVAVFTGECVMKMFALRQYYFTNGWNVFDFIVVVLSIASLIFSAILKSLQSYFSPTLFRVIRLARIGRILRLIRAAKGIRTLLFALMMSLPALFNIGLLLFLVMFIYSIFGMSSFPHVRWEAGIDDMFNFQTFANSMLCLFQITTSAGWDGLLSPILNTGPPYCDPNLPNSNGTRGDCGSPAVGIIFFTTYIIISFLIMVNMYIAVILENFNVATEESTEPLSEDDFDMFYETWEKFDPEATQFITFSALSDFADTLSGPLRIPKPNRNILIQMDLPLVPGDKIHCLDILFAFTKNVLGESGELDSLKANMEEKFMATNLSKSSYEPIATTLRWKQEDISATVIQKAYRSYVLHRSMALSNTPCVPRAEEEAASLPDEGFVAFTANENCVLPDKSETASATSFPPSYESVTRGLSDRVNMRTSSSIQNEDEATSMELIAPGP

Question: Which results are given for `CC[C@H](C)[C@@H]1NC(=O)[C@H](CCCNC(=N)N)NC(=O)[C@@H]2CSSC[C@@H]3NC(=O)CNC(=O)CNC(=O)[C@H](CC(C)C)NC(=O)[C@H](Cc4ccccc4)NC(=O)[C@H](Cc4c[nH]c5ccccc45)NC(=O)[C@H](CCCNC(=N)N)NC(=O)[C@@H](NC(=O)[C@@H](N)CC(=O)O)CSSC[C@H](NC(=O)[C@H](CSSC[C@@H](C(=O)N[C@@H](C)C(=O)N[C@@H](Cc4c[nH]c5ccccc45)C(=O)N[C@@H](CC(=O)O)C(=O)NCC(=O)N[C@H](C(=O)N[C@@H](Cc4ccccc4)C(N)=O)[C@@H](C)O)NC(=O)[C@H](Cc4ccc(O)cc4)NC(=O)[C@H](CCCCN)NC(=O)[C@H]([C@@H](C)CC)NC(=O)[C@H](Cc4ccc(O)cc4)NC(=O)CNC(=O)[C@H](CC(=O)O)NC1=O)NC(=O)[C@H](CC(=O)O)NC(=O)[C@H](CO)NC(=O)[C@H](CC(=O)O)NC(=O)[C@H](CCCCN)NC(=O)[C@H](CO)NC3=O)C(=O)N[C@@H](CCCCN)C(=O)N[C@@H](Cc1c[nH]cn1)C(=O)N[C@@H](CC(C)C)C(=O)N[C@@H](C)C(=O)N2` [Eo1a] (H-DCRWFLGGCSKDSDCCKHLACRIDGYIKYCAWDGTF-NH2; disulfide 2-16, 9-21, 15-30 (inferred); N-terminus assumed)?
Answer: ΔV1/2 activation [1]: −6.7 ± 0.5 mV; ΔV50 voltage-dependence of steady-state fast inactivation (NaV1.8; 5 min, CHO cells, hNaV1.8/β3, 10-ms pulse to +10 mV after 500-ms step, hyperpolarising shift, mean ± SEM, n = 4 cells): –15.5 ± 1.8 mV; ΔV50 voltage-dependence of activation (NaV1.8; 5 min, CHO cells, hNaV1.8/β3, Boltzmann fit, hyperpolarising shift vs before addition, mean ± SEM, n = 4 cells): –20.5 ± 1.2 mV; peak current I/I0 (NaV1.8; 5 min, peak from I-V protocol at any voltage, normalised to buffer control, CHO hNaV1.8/β3, mean ± SEM, n = 4–6 cells): 1.8 ± 0.08; window current (NaV1.8; NaV1.8, n = 4 cells): comparatively unchanged; activation kinetics (time to peak) (NaV1.8; NaV1.8, potentials between −5 mV and +45 mV, n = 4 cells, two-way ANOVA): without significantly altering; fast inactivation kinetics (time constant) (NaV1.8; NaV1.8, single exponential fit, −5 mV to +45 mV, n = 4 cells, two-way ANOVA): without significantly altering; V1/2 activation (NaV1.8; NaV1.8, 5 min, control +7.0 ± 1.8 mV, *p < 0.05, mean ± SEM, n = 4–6): −13.5 mV; V1/2 inactivation (steady-state fast inactivation) (NaV1.8; NaV1.8, 5 min, control −27.4 ± 2.7 mV, *p < 0.05, mean ± SEM, n = 4–6): −42.9 ± 2.1*
